Reference: patent US7319015B2, “Methods and compositions for using alveolar macrophage phospholipase A2” (The Regents of The University of Michigan, priority 2004, dated 2008)
Values joined by “and” are separate entries in the source; they are usually repeats but may differ in a detail not shown here. Identical values can stand only once. “Also recorded” adds a separate entry of the source. Like-named read-outs stand apart in the source and are kept apart here. One block for each molecule: values may come before it.

Assays:
[1] = target: T1, 1-O-acylceramide synthase (LPLA2) (Bos taurus, UniProt Q8WMP9); settings: initial characterization of the enzyme, cited from earlier work
T1 sequence (Q8WMP9 30-407): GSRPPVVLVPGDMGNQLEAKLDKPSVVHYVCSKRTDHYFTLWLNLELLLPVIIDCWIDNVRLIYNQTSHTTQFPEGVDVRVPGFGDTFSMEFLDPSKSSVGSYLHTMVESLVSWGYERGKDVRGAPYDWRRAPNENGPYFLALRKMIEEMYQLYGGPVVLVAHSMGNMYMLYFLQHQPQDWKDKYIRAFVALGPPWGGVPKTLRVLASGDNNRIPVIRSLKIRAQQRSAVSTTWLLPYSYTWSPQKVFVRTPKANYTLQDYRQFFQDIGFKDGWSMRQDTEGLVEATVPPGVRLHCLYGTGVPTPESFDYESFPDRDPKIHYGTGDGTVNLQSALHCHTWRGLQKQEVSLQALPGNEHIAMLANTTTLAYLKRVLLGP

[2] = target: T2, LPLA2 (Canis lupus familiaris, UniProt Q6XPZ3); assay: LPLA2 (transacylase/phospholipase A2) activity assay in MDCK cell homogenates with cationic amphiphilic drugs; format: biochemical; settings: FIG. 1A; for inhibition of LPLA2 transacylase and phospholipase A2 activity (in words): enzyme assay for LPLA2 activity
T2 construct: endogenous in cells; host or cells: MDCK cell homogenate
T2 sequence (Q6XPZ3 32-408): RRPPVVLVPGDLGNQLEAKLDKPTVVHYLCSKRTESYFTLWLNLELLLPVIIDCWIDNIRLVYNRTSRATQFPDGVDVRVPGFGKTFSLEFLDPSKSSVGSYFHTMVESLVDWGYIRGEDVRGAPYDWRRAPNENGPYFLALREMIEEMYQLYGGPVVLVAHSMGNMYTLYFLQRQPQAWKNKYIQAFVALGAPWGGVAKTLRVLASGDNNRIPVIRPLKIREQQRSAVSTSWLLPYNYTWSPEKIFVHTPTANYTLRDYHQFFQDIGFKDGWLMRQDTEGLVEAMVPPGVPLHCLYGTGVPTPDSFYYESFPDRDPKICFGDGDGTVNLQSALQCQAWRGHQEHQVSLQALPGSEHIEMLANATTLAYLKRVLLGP
Procedure: (§1) Phospholipids, DOPC and PE, and N-acetylsphingosine (NAS) were used in the assay system as a donor and an acceptor, respectively, of an acyl group. The transacylase activity was determined by analysis of 1-O-acyl-N-acetylsphingosine formation rate. The reaction mixture consisted of 45 mM sodium citrate (pH 4.5), 10 μg/ml bovine serum albumin, 40 μM NAS incorporated into phospholipid liposomes (DOPC/PE/dicetyl phosphate/NAS (5:2:1:2 in molar ratio)) and soluble fraction (0.7-10 μg) in a total volume of 500 μl. The reaction was initiated by adding the soluble fraction, kept for 5-60 min at 37° C. and terminated by adding 3 ml of chloroform/methanol (2:1) plus 0.3 ml of 0.9% (w/v) NaCl. The mixture was centrifuged for 5 min at room temperature. The resultant lower layer was transferred into another glass tube and dried down under a stream of nitrogen gas. The dried lipid dissolved in 40 μl of chloroform/methanol (2:1) was applied on an HPTLC plate and developed in a solvent system consisting of chloroform/acetic acid (9:1). The plated was dried down and soaked in 8% (w/v) CuSO4, 5H2O, 6.8% (v/v) H3PO4, 32% (v/v) methanol. The uniformly wet plate was briefly dried down by a hair dryer and charred for 15 min in a 150° C. oven. The plate was scanned and the amount of the reaction products was estimated by NIH-image 1.62.
Res., 35:1232-1240, 1994]. PDMP and its related homologs contain a hydrophilic domain with a substituted nitrogen and a hydrophobic aromatic group, functional groups that are typical of CADs in general.

[3] = test system: CHO cells; settings: CHO cells (Rosenwald and Pagano 1994); cited from earlier work
[4] = test system: MDCK cells; settings: MDCK cells treated at the IC50 for transacylase inhibition, 7 days, FIG. 2
[5] = test system: MDCK cells
[6] = test system: dipalmitoyl-phosphatidylcholine degradation; settings: murine lung, previously demonstrated; cited from earlier work
[7] = test system: surfactant phospholipid catabolism; settings: rats treated with MJ33 (Fisher et al. 2001); cited from earlier work
[8] = target: LPLA2 (Rattus norvegicus, UniProt Q675A5); settings: rat AM soluble fraction 2.42 μg protein/ml, citrate buffer pH 4.5, 40 μM NAS, different concentrations of MJ33
Procedure: as §1, with “The uniformly wet plate was briefly dried down by a hair dryer and charred for 15 min in a 150° C. oven. The plate was scanned and the amount of the reaction products was estimated by NIH-image 1.62.” left out
(§2) In the studies the effect of MJ33 on LPLA2 transacylation activity in rat alveolar macrophages and c-myc-tagged mouse LPLA2 transfected COS 7 cells was also determined. […] The enzyme activity was determined as described in the Example 1.

[9] = target: c-myc-tagged mouse LPLA2 (Mus musculus, UniProt Q8VEB4); settings: soluble fraction of LPLA2 transfected COS 7 cells 2.26 μg protein/ml, citrate buffer pH 4.5, 40 μM NAS
Procedure: as §1, with “The uniformly wet plate was briefly dried down by a hair dryer and charred for 15 min in a 150° C. oven. The plate was scanned and the amount of the reaction products was estimated by NIH-image 1.62.” left out
as §2

c-myc-tagged mouse LPLA2, sequence (Q8VEB4 34-412): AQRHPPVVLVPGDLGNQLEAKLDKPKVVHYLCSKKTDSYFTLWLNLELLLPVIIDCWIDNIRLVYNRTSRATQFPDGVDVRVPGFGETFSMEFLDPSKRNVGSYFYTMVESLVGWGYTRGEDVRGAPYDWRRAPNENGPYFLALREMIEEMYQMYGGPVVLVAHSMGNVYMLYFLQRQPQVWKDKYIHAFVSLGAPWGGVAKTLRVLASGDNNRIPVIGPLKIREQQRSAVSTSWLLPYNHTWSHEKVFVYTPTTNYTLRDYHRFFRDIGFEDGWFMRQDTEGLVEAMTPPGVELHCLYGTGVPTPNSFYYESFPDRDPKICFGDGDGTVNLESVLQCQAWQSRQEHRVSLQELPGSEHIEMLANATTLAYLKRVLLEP
LPLA2 (Rattus norvegicus, UniProt Q675A5), sequence (Q675A5 34-413): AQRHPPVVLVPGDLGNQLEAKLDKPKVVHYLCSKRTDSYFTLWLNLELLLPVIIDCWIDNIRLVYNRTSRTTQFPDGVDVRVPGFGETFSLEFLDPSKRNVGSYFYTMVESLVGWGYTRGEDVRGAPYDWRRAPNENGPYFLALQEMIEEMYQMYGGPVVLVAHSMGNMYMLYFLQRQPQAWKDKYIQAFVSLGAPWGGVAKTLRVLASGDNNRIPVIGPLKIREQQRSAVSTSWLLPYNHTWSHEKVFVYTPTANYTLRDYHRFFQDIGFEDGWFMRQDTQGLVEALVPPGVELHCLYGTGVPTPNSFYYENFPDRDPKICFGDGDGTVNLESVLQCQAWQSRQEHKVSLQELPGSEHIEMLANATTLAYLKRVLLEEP

SMILES: CCCCC/C=C\C/C=C\C/C=C\C/C=C\CCCC(=O)C(F)(F)F [nonadecyltetraenyl trifluoromethyl ketone]
- inhibition of enzyme activity [1]: insensitive; also recorded: did not inhibit

SMILES: O=C1O/C(=C/Br)CCC1c1cccc2ccccc12 (centres unmarked) [bromoenollactone]
- inhibition of enzyme activity [1]: did not inhibit
- inhibition of enzyme activity ([1]; listed as bromoenol lactone): insensitive

- inhibition of LPLA2 transacylase and phospholipase A2 activity (in words) [2]: comparable to but greater than PDMP
SMILES: CCCCc1oc2ccccc2c1C(=O)c1cc(I)c(OCCN(CC)CC)c(I)c1 [Amiodarone, amiodarone]

- total phospholipid content ([5]; MDCK cells incubated for up to 7 days, 15 μM, FIG. 1B): Modest, but significant increases
- content of phosphatidylethanolamine and phosphatidylcholine ([5]; MDCK cells, time-dependent changes, FIG. 1C/1D): increased
- IC50 ([2]; enzyme assay for LPLA2 (transacylase) activity, read-out: IC50 / half maximal inhibition of LPLA2 activity): 30 µM and 50 µM
- inhibition of LPLA2 transacylase and phospholipase A2 activity (in words) [2]: potently inhibited
SMILES: CCCCCCCCCC(=O)N[C@H](CN1CCOCC1)[C@H](O)c1ccccc1 [PDMP, D-threo-1phenyl-2-decanoylamino-3-morphilino-propanol]
- induction of lysosomal lamellar inclusions [3]: induced lysosomal lamellar inclusions
- lysosomal phospholipid inclusions by electron microscopy [4]: obvious lysosomal phospholipid inclusions

- inhibition of transacylase activity [8]: concentration dependent inhibition
- inhibition of transacylase activity [9]: comparable response
SMILES: CCCCCCCCCCCCCCCCOCC(COCC(F)(F)F)OP(=O)(O)OC (centres unmarked) [MJ33]
- block of dipalmitoyl-phosphatidylcholine degradation [6]: block the majority
- inhibition of surfactant phospholipid catabolism [7]: 40 to 50%
